Experimental data: patent US20220235032A1 (GENFLEET THERAPEUTICS (SHANGHAI) INC., priority 2019, published 2022)

Columns and labels:
RIPK1 enzyme = target: T1, RIPK1 enzyme (Homo sapiens, UniProt Q13546); assay: Inhibitory activity of the compounds against RIPK1 enzyme (P33-ATP, MBP substrate); type: biochemical; conditions: 36 nM RIPK1, substrate MBP, 10 mM magnesium ion, P33-labeled ATP, 2 h room temperature; read-out: RIPK1 enzyme inhibitory activety IC50
T1 construct: purchased Eurofins 16-022
T1 sequence (Q13546 1-671): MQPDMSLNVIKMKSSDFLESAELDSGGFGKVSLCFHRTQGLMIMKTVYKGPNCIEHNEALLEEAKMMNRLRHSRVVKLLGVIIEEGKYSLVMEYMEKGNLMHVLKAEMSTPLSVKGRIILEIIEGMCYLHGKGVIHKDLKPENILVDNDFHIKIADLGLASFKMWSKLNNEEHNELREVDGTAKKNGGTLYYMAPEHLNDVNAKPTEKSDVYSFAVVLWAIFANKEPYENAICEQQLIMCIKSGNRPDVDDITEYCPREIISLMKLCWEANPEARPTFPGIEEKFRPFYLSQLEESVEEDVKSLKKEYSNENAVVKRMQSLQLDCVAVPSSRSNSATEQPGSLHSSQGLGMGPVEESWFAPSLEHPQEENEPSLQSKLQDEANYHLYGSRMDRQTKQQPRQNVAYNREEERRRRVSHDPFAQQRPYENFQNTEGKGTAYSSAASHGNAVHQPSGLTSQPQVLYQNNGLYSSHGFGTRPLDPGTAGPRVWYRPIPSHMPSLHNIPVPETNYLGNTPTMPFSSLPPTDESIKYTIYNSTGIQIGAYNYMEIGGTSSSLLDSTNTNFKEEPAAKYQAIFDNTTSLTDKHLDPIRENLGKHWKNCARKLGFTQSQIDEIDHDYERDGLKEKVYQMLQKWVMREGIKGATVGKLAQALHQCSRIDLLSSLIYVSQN
Method: The compound to be tested was dissolved in DMSO, and diluted in 3.16 folds with DMSO to a series of gradient concentrations. Then, the solution was diluted with MOPS buffer pH 7.0 to the final concentration. The resultant working solution was mixed with 36 nM RIPK1 (final concentration) and the substrate MBP homogeneously. Thereafter, 10 mM magnesium ion and P^33 isotopically labeled ATP were added for the reaction. After the reaction was carried out at room temperature for 2 h, phosphoric acid was added to terminate the reaction. The final reaction system was tested using a liquid scintillation counter after treatment. The […] for the tested result and a positive control group were converted to activity percentage. The activity percentage was plotted against the final concentration of respective compound using a 4-parameter fitting to obtain the inhibitory IC50 of the compound against RIPK1 enzyme.

U937 cells = assay: Inhibitory activity against programmed necroptosis of U937 cells induced by TNF-α and Q-VD-Oph (CellTiter-Glo); type: cell-based; conditions: Celltiter-Glo survival rate
Method: The U937 cell strain which was used in the following Testing Examples was derived from ATCC, No.: CRL-1593.2, batch No.: 63479999, culture medium: RPMI-1640+10% FBS.
The compound to be tested was dissolved in DMSO, and diluted with DMSO to a series of gradient concentrations. The U937 cells were inoculated in a 384-well plate at 5000/well. The compound at respective concentration was added to each of the wells, and was mixed with the cells homogeneously. Human TNF-α and Q-VD-Oph were added simultaneously to induce programmed necroptosis of the cells. The cells were placed in the incubator at 37° C. and 5% CO2 for further culture of 48 h. Celltiter-Glo reagent was used for detection. After adequate pyrolysis reaction, the chemiluminescence readout value was recorded by a microplate reader. The survival rate was calculated from the detection results using the equation as follows: SR (%)=(RLU compound−RLU blank)/(RLU high control−RLU blank)×100%. The survival rate was plotted against the final concentration of respective compound using a 4-parameter fitting to calculate the inhibitory C50 of the compound against programmed necroptosis of cells induced by TNF-α.

[1] = human TNF-α + Q-VD-Oph induced necroptosis, 48 h

**Q.** `N#Cc1cc(N2CC[C@H](C(=O)N3N=CC[C@H]3c3cncc(F)c3)C3(CC3)C2)ncn1` (single isomer, unassigned) [Compound Z-48-d] was tested. Which IC50 (RIPK1 enzyme) did it give?
**A.** The IC50 was 50 nM.

**Q.** What about the IC50 (U937 cells; Homo sapiens, U-937, 48 h) of the same compound?
**A.** Its IC50 is 7 nM.

**Q.** Which results are given for `NC(=O)c1cc(N2CC3CC(C(=O)N4N=CCC4c4ccccc4)CC3C2)ncn1` (centres unmarked) [Compound Z-10]?
**A.** IC50 (RIPK1 enzyme): 95 nM; IC50 (U937 cells; Homo sapiens, U-937, 48 h): 153 nM

**Q.** Which results are given for `COc1nccc(N2CC3CC(C(=O)N4N=CCC4c4ccccc4)CC3C2)n1` (centres unmarked) [Compound Z-13, (2-(2-methoxypyrimidin-4-yl)octahydrocyclopenta[c]pyrrol-5-yl)(5-phenyl-4,5-dihydro-1H-pyrazol-1-yl) ketone]?
**A.** IC50 (RIPK1 enzyme): 63 nM; IC50 (U937 cells; Homo sapiens, U-937, 48 h): 146 nM

**Q.** How did the IC50 (RIPK1 enzyme) turn out when `N#Cc1cc(N2CC3CC(C(=O)N4N=CCC4c4cc(F)cc(F)c4)CC3C2)ncn1` (centres unmarked) [Compound Z-11, 6-(5-(5-(3,5-difluorophenyl)-4,5-dihydro-1H-pyrazole-1-carbonyl)hexahydrocyclopenta[C]pyrrol-2(1H)-yl)pyrimidine-4-carbonitrile] was run?
**A.** The IC50 was 89 nM.

**Q.** And the IC50 (U937 cells; Homo sapiens, U-937, 48 h)?
**A.** Its IC50 is 138 nM.

**Q.** For `N#Cc1cc(N2CC3CC(C(=O)N4N=CCC4c4ccccc4)CC3C2)ncn1` (single isomer, unassigned) [Compound Z-9-1], which IC50 (RIPK1 enzyme) is on record?
**A.** The IC50 was 29 nM.

**Q.** And the IC50 (U937 cells; Homo sapiens, U-937, 48 h)?
**A.** The IC50 was 157 nM.

**Q.** Which results are given for `N#Cc1cc(N2CCC(C(=O)N3N=CCC3c3cc(F)cc(F)c3)C3(CC3)C2)ncn1` (single isomer, unassigned) [Compound Z-25-2]?
**A.** IC50 (RIPK1 enzyme): 42 nM; IC50 (U937 cells; Homo sapiens, U-937, 48 h): 1 nM

**Q.** With `NC(=O)c1cc(N2CCC(C(=O)N3N=CCC3c3cncc(F)c3)C3(CC3)C2)ncn1` (racemic) [Compound Z-49-1, 6-(8-(5-(5-fluoropyridin-3-yl)-4,5-dihydro-1H-pyrazole-1-carbonyl)-5-aza-spiro[2.5]oct-5-yl)pyrimidine-4-carboxamide] as the compound, how does the IC50 (U937 cells; Homo sapiens, U-937, 48 h) read?
**A.** The IC50 was 279 nM.

**Q.** Which IC50 (U937 cells; [1]) does the source give for `N#Cc1cc(N2CCC(C(=O)N3CCC(c4cc(F)cc(F)c4)=N3)C3(CC3)C2)ncn1` (racemic) [Compound Z-25, 6-(8-(3-(3,5-difluorophenyl)-4,5-dihydro-1H-pyrazole-1-carbonyl)-5-aza-spiro[2.5]oct-5-yl)pyrimidine-4-carbonitrile] here?
**A.** The IC50 was 4 nM.

**Q.** With `Nc1nc(N2C[C@H]3C[C@@H](C(=O)N4N=CC[C@@H]4c4cc(F)cc(F)c4)C[C@H]3C2)ncc1F` (single isomer, unassigned) [Compound Z-23-4] as the compound, how does the IC50 (U937 cells; [1]) read?
**A.** Its IC50 is 41 nM.

**Q.** Which IC50 (U937 cells; Homo sapiens, U-937, 48 h) does the source give for `CN(C)C(=O)c1cc(N2CC[C@H](C(=O)N3N=CC[C@H]3c3cc(F)cc(F)c3)CC23CC3)ncn1` (racemic) [Compound Z-69, 6-((S)-7-((S)-5-(3,5-difluorophenyl)-4,5-dihydro-1H-pyrazole-1-carbonyl)-4-aza-spiro[2.5]oct-4-yl)-N,N-dimethylpyrimidine-4-carboxamide] here?
**A.** The IC50 was 127 nM.

**Q.** `COc1cc(N2CC3CC(C(=O)N4N=CCC4c4ccccc4)CC3C2)ncn1` (centres unmarked) [Compound Z-12, (2-(6-methoxypyrimidin-4-yl)octahydrocyclopenta[c]pyrrol-5-yl)(5-phenyl-4,5-dihydro-1H-pyrazol-1-yl) ketone] was tested. Which IC50 (RIPK1 enzyme) did it give?
**A.** The IC50 was 123 nM.

**Q.** With `NC(=O)c1cc(N2CCC(C(=O)N3N=CCC3c3cc(F)ccc3F)C3(CC3)C2)ncn1` (racemic) [Compound Z-53-2, 6-(8-(5-(2,5-difluorophenyl)-4,5-dihydro-1H-pyrazole-1-carbonyl)-5-aza-spiro[2.5]oct-5-yl)pyrimidine-4-carboxamide] as the compound, how does the IC50 (U937 cells; [1]) read?
**A.** Its IC50 is 331 nM.

**Q.** With `N#Cc1cc(N2CCC(C(=O)N3N=CCC3c3cc(F)ccc3F)C3(CC3)C2)ncn1` (racemic) [Compound Z-52-2, 6-(8-(5-(2,5-difluorophenyl)-4,5-dihydro-1H-pyrazole-1-carbonyl)-5-aza-spiro[2.5]oct-5-yl)pyrimidine-4-carbonitrile] as the compound, how does the IC50 (U937 cells; [1]) read?
**A.** Its IC50 is 41 nM.

**Q.** For `Cc1nnc(N2CCC(C(=O)N3N=CCC3c3cc(F)cc(F)c3)C3(CC3)C2)o1` (centres unmarked) [Compound Z-63-a, (5-(3,5-difluorophenyl)-4,5-dihydro-1H-pyrazol-1-yl)(5-(5-methyl-1,3,4-oxadizol-2-yl)-5-aza-spiro[2.5]octane-8-yl) ketone], which IC50 (U937 cells; [1]) is on record?
**A.** Its IC50 is 32 nM.

**Q.** Which IC50 (U937 cells; Homo sapiens, U-937, 48 h) does the source give for `N#Cc1ccnc(N2CC3CC(C(=O)N4N=CCC4c4cncc(F)c4)CC3C2)n1` (centres unmarked) [Compound Z-31, 2-(5-(5-(5-fluoropyridin-3-yl)-4,5-dihydro-1H-pyrazole-1-carbonyl)hexahydrocyclopenta[c]pyrrol-2(1H)-yl)pyrimidine-4-carbonitrile] here?
**A.** The IC50 was 408 nM.

**Q.** `N#Cc1cc(N2CC3CCC(C2)C3C(=O)N2N=CCC2c2ccccc2)ncn1` (single isomer, unassigned) [Compound Z-2, 6-(8-(5-phenyl-4,5-dihydro-1H-pyrazole-1-carbonyl)-3-azabicyclo[3.2.1]oct-3-yl)pyrimidine-4-carbonitrile] was tested. Which IC50 (U937 cells; [1]) did it give?
**A.** Its IC50 is 156 nM.

**Q.** Which IC50 (U937 cells; Homo sapiens, U-937, 48 h) does the source give for `N#Cc1cc(N2CCC(C(=O)N3N=CCC3c3ccccc3)C3(CC3)C2)ncn1` (racemic) [Compound Z-60-2, 6-(8-(5-phenyl-4,5-dihydro-1H-pyrazole-1-carbonyl)-5-aza-spiro[2.5]oct-5-yl)pyrimidine-4-carbonitrile] here?
**A.** Its IC50 is 7 nM.

**Q.** `N#Cc1cc(N2CCC(C(=O)N3CCC(c4cc(F)cc(F)c4)=N3)C3(CC3)C2)ncn1` (racemic) [Compound Z-26, 6-(8-(3-(3,5-difluorophenyl)-4,5-dihydro-1H-pyrazole-1-carbonyl)-5-aza-spiro[2.5]oct-5-yl)pyrimidine-4-carbonitrile] was tested. Which IC50 (U937 cells; [1]) did it give?
**A.** Its IC50 is 244 nM.

**Q.** `N#Cc1cc(N2C[C@H]3C[C@@H](C(=O)N4N=CC[C@@H]4c4cc(F)cc(F)c4)C[C@H]3C2)ncn1` (single isomer, unassigned) [Compound Z-38-4] was tested. Which IC50 (U937 cells; [1]) did it give?
**A.** Its IC50 is 82 nM.

**Q.** How did the IC50 (U937 cells; Homo sapiens, U-937, 48 h) turn out when `NC(=O)c1ccnc(N2CC3CC(C(=O)N4N=CCC4c4cncc(F)c4)CC3C2)n1` (racemic) [Compound Z-34, 2-(5-(5-(5-fluoropyridin-3-yl)-4,5-dihydro-1H-pyrazole-1-carbonyl)hexahydrocyclopenta[c]pyrrol-2(1H)-yl)pyrimidine-4-carboxamide] was run?
**A.** Its IC50 is 380 nM.

**Q.** For `NC(=O)c1cc(N2CCC(C(=O)N3N=CCC3c3cc(F)cc(F)c3)CC23CC3)ncn1` (centres unmarked) [Compound Z-64-1, 6-(7-(5-(3,5-difluorophenyl)-4,5-dihydro-1H-pyrazole-1-carbonyl)-4-aza-spiro[2.5]oct-4-yl)pyrimidine-4-carboxamide], which IC50 (U937 cells; [1]) is on record?
**A.** The IC50 was 6 nM.

**Q.** Which IC50 (U937 cells; [1]) does the source give for `N#Cc1cc(N2CCC(C(=O)N3N=CCC3c3cncc(F)c3)C3(CC3)C2)ncn1` (racemic) [Compound Z-48-1, 6-(8-(5-(5-fluoropyridin-3-yl)-4,5-dihydro-1H-pyrazole-1-carbonyl)-5-aza-spiro[2.5]oct-5-yl)pyrimidine-4-carbonitrile] here?
**A.** Its IC50 is 30 nM.

**Q.** Which results are given for `N#Cc1cc(N2CC3CC(C(=O)N4N=CCC4c4ccccc4)CC3C2)ncn1` (centres unmarked) [Compound Z-72, 6-(5-(5-phenyl-4,5-dihydro-1H-pyrazole-1-carbonyl)hexahydrocyclopenta[C]pyrrol-2(1H)-yl)pyrimidine-4-carbonitrile]?
**A.** IC50 (RIPK1 enzyme): 168 nM; IC50 (U937 cells; Homo sapiens, U-937, 48 h): 30 nM

**Q.** Which IC50 (U937 cells; Homo sapiens, U-937, 48 h) does the source give for `NC(=O)c1cc(N2CCC(C(=O)N3N=CCC3c3ccccc3)C3(CC3)C2)ncn1` (racemic) [Compound Z-43-2, 6-(8-(5-phenyl-4,5-dihydro-1H-pyrazole-1-carbonyl)-5-aza-spiro[2.5]oct-5-yl)pyrimidine-4-carboxamide] here?
**A.** Its IC50 is 45 nM.

**Q.** How did the IC50 (U937 cells; [1]) turn out when `Nc1nc(N2C[C@H]3C[C@@H](C(=O)N4N=CC[C@@H]4c4ccccc4)C[C@H]3C2)ncc1F` (single isomer, unassigned) [Compound Z-39-4] was run?
**A.** Its IC50 is 88 nM.
